In the supplement of paper PMC11061612:

Key:
WM-115 (Melanoma) [1] = test: Bliss excess, mean over the matrix (fraction); higher = more synergy
In short: (§1)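 Cell lines in DMEM/F12 or RPMI with 10% FBS were plated in 1536-well plates, held 24 hours at 37°C, 5% CO2, then given two-drug dose matrices for 72 hours (DMSO typically 0.2%). Viability was read by CellTiter-Glo 2.0 luminescence and scaled as inhibition from 0 (vehicle wells) to 1 (blank wells). Combination Emax is the second-highest inhibition in the matrix; Bliss excess is observed combination effect minus expected EA + EB − EA·EB, EA and EB being single-agent effects.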

[2] = system: L-540 (Hodgkin's Lymphoma); test: as above
In short: as §1

[3] = system: GR-ST (B-Lymphoblastic Leukemia); test: as above
In short: as §1

[4] = system: DND-41 (T-Lymphoblastic Leukemia); test: as above
In short: as §1

ES1 (Ewing's Sarcoma) [5] = test: as above
In short: as §1

[6] = system: CAMA-1 (Breast Carcinoma); test: as above
In short: as §1

[7] = system: SR (Other Blood Carcinomas); test: as above
In short: as §1

[8] = system: SW837 (Colorectal Carcinoma); test: as above
In short: as §1

[9] = system: MKN28 (Gastric Carcinoma); test: as above
In short: as §1

WIL2-NS (Non-Cancerous) [10] = test: as above
In short: as §1

[11] = system: NCI-H1792 (Lung Adenocarcinoma); test: as above
In short: as §1

[12] = system: BFTC-905 (Bladder Carcinoma); test: as above
In short: as §1

[13] = system: SW1417 (Colorectal Carcinoma); test: as above
In short: as §1

[14] = system: BL-41 (Burkitt's Lymphoma); test: as above
In short: as §1

NCI-H2818 (Mesothelioma) [15] = test: as above
In short: as §1

[16] = system: K-562 (Chronic Myelogenous Leukemia); test: as above
In short: as §1

ES8 (Ewing's Sarcoma) [17] = test: as above
In short: as §1

WM-115 (Melanoma) [18] = test: combination Emax (second highest fraction inhibited in the dose matrix, 72 h); higher = more inhibition; extreme values may be limits of the assay
In short: as §1

[19] = system: L-540 (Hodgkin's Lymphoma); test: as above
In short: as §1

[20] = system: GR-ST (B-Lymphoblastic Leukemia); test: as above
In short: as §1

[21] = system: DND-41 (T-Lymphoblastic Leukemia); test: as above
In short: as §1

ES1 (Ewing's Sarcoma) [22] = test: as above
In short: as §1

[23] = system: CAMA-1 (Breast Carcinoma); test: as above
In short: as §1

[24] = system: SR (Other Blood Carcinomas); test: as above
In short: as §1

[25] = system: SW837 (Colorectal Carcinoma); test: as above
In short: as §1

[26] = system: MKN28 (Gastric Carcinoma); test: as above
In short: as §1

WIL2-NS (Non-Cancerous) [27] = test: as above
In short: as §1

[28] = system: NCI-H1792 (Lung Adenocarcinoma); test: as above
In short: as §1

[29] = system: BFTC-905 (Bladder Carcinoma); test: as above
In short: as §1

[30] = system: SW1417 (Colorectal Carcinoma); test: as above
In short: as §1

[31] = system: BL-41 (Burkitt's Lymphoma); test: as above
In short: as §1

NCI-H2818 (Mesothelioma) [32] = test: as above
In short: as §1

[33] = system: K-562 (Chronic Myelogenous Leukemia); test: as above
In short: as §1

ES8 (Ewing's Sarcoma) [34] = test: as above
In short: as §1
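For Bliss excess, mean over the matrix in this document: after 72 h of two-drug dosing.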

Structure (SMILES)	Bliss excess (WM-115 (Melanoma) [1])	Bliss excess [2]	Bliss excess [3]	Bliss excess [4]	Bliss excess (ES1 (Ewing's Sarcoma) [5])	Bliss excess [6]	Bliss excess [7]	Bliss excess [8]	Bliss excess [9]	Bliss excess (WIL2-NS (Non-Cancerous) [10])	Bliss excess [11]	Bliss excess [12]	Bliss excess [13]	Bliss excess [14]	Bliss excess (NCI-H2818 (Mesothelioma) [15])	Bliss excess [16]	Bliss excess (ES8 (Ewing's Sarcoma) [17])	combination Emax (WM-115 (Melanoma) [18])	combination Emax [19]	combination Emax [20]	combination Emax [21]	combination Emax (ES1 (Ewing's Sarcoma) [22])	combination Emax [23]	combination Emax [24]	combination Emax [25]	combination Emax [26]	combination Emax (WIL2-NS (Non-Cancerous) [27])	combination Emax [28]	combination Emax [29]	combination Emax [30]	combination Emax [31]	combination Emax (NCI-H2818 (Mesothelioma) [32])	combination Emax [33]	combination Emax (ES8 (Ewing's Sarcoma) [34])
C[C@@H](Oc1cc(-c2cnn(C3CCNCC3)c2)cnc1N)c1c(Cl)ccc(F)c1Cl [Crizotinib] + Cn1cnc2c(F)c(Nc3ccc(Br)cc3Cl)c(C(=O)NOCCO)cc21 [Selumetinib] (first compound max 10 µM, 7x7, partner max 10 µM)	-0.0547	-0.0703	-0.0439	0.0194	-0.0239	-0.042	-0.0195	-0.0422	0.016	-0.026	-0.022	-0.0138	0.0093	-0.0265	-0.0068	0.0366	-0.0482	0.476	0.553	0.972	0.971	0.843	0.156	1	0.562	0.516	0.485	0.917	0.912	0.608	1	0.329	0.947	0.921
C[C@@H]1COCCN1c1cc(C2([S@](C)(=N)=O)CC2)nc(-c2ccnc3[nH]ccc23)n1 [AZD6738] + Nc1ccn([C@@H]2O[C@H](CO)[C@@H](O)C2(F)F)c(=O)n1 [Gemcitabine] (first compound max 10 µM, 7x7, partner max 0.3 µM)	0.0268	-0.0107	0.0085	0.0586	0.0203	0.0878	0.0532	0.065	0.0907	0.0093	0.0362	0.0387	0.0802	-0.0007	0.0515	0.0537	0.0265	0.659	0.963	0.889	0.921	1	0.587	1	0.779	0.664	0.985	0.951	0.915	0.77	1	0.545	0.916	1
Cc1nc(-c2cn3c(n2)-c2ccc(-c4cnn(C(C)(C)C(N)=O)c4)cc2OCC3)n(C(C)C)n1 [Taselisib] + O=C(Nc1ccc2[nH]nc(-c3ccncc3)c2c1)[C@@H]1CCN(CC(=O)N2CCN(c3ccc(-c4ncccn4)cc3)CC2)C1 [SCH772984] (first compound max 10 µM, 7x7, partner max 5 µM)	0.0394	0.0023	-0.0418	0.14	0.0604	0.0216	0.177	0.0556	0.0966	0.106	0.0818	0.172	0.0781	0.0266	0.0096	0.0488	0.117	0.951	0.474	0.706	0.611	0.77	0.563	0.681	0.747	0.451	0.728	0.966	0.999	0.756	0.263	0.372	0.53	0.84
O=C(c1cc(Cc2n[nH]c(=O)c3ccccc23)ccc1F)N1CCN(C(=O)C2CC2)CC1 [Olaparib] + CN(CC[C@H](CSC1=CC=CC=C1)NC2=C(C=C(C=C2)S(=O)(=O)NC(=O)C3=CC=C(C=C3)N4CCC(CC4)[C@H](C5=CC=CC=C5C6=CC=C(C=C6)Cl)O)S(=O)(=O)C(F)(F)F)CCO [AZD4320] (first compound max 10 µM, 7x7, partner max 1 µM)	-0.0631	-0.0017	0.0012	-0.0067	0.0333	-0.0317	0.146	-0.053	-0.0269	0.0107	-0.0399	-0.0089	-0.0183	0.0193	-0.0504	-0.0155	0.0463	0.37	0.618	0.462	1	0.918	0.278	0.709	0.197	0.147	0.509	0.154	0.346	0.651	0.417	0.186	0.253	0.982
Cc1cc2ncnn2cc1Nc1ncc2c(n1)n(C1CCOCC1)c(=O)n2C [AZD7648] + COc1cc([C@@H]2c3cc4c(cc3[C@@H](O[C@@H]3O[C@@H]5CO[C@@H](C)O[C@H]5[C@H](O)[C@H]3O)[C@H]3COC(=O)[C@H]23)OCO4)cc(OC)c1O [Etoposide] (first compound max 10 µM, 7x7, partner max 10 µM)	0.0071	0.108	0.0727	0.115	0.109	-0.012	0.193	0.0591	0.0435	0.0553	0.0565	0.152	0.0288	0.0647	0.0361	0.114	0.165	0.481	0.903	0.703	0.967	1	0.463	1	0.358	0.56	0.981	0.708	0.903	0.382	0.998	0.617	0.872	0.994
O=C(c1cc(Cc2n[nH]c(=O)c3ccccc23)ccc1F)N1CCN(C(=O)C2CC2)CC1 [Olaparib] + Cc1c2c(nn1C)CSCc1cc(n(C)n1)CSc1cc(c3ccccc3c1)OCCCc1c(C(=O)O)n(C)c3c-2c(Cl)ccc13 [AZD5991] (first compound max 10 µM, 7x7, partner max 1 µM)	-0.0678	0.0143	-0.0352	-0.0059	0.0139	0.0094	0.0384	-0.0524	-0.0498	-0.0181	-0.041	-0.0279	-0.0315	0.0012	-0.0446	-0.0125	-0.0085	0.146	1	0.515	0.174	0.98	0.706	0.943	0.136	0.0875	0.299	0.201	0.178	0.0852	1	0.169	0.0695	0.958
CS(=O)(=O)CCNCc1ccc(-c2ccc3ncnc(Nc4ccc(OCc5cccc(F)c5)c(Cl)c4)c3c2)o1 [Lapatinib] + Cn1cnc2c(F)c(Nc3ccc(Br)cc3Cl)c(C(=O)NOCCO)cc21 [Selumetinib] (first compound max 10 µM, 7x7, partner max 10 µM)	0.0205	-0.0147	-0.03	0.0178	0.0071	-0.0009	0.0398	0.0194	0.0057	0.0098	0.0012	0.0619	0.0847	-0.0346	-0.0295	-0.0324	0.036	0.531	0.511	0.969	0.871	0.452	0.187	0.707	0.732	0.545	0.321	0.527	0.804	0.698	0.907	0.28	0.564	0.555
N#Cc1cnc(Nc2cc(NC[C@H]3CNCCO3)c(C(F)(F)F)cn2)cn1 [SRA737] + O=c1[nH]cc(F)c(=O)[nH]1 [5-Fluorouracil] (first compound max 10 µM, 7x7, partner max 20 µM)	-0.0753	-0.0581	-0.0636	0.0434	0.0525	0.0209	-0.0128	0.0162	0.0222	0.0182	0.0523	0.0197	0.0018	0.0042	-0.0232	-0.0202	0.0404	0.255	0.936	0.817	0.946	0.982	0.314	0.959	0.497	0.381	0.957	0.84	0.278	0.238	1	0.239	0.893	0.611
